From ChEMBL document CHEMBL1909046, “DrugMatrix in vitro pharmacology data”

target: T1, Calcitonin receptor (Homo sapiens, UniProt P30988); assay: not given; assay type: cell membranes, Membrane; settings: t47d; note: in other assays of this panel Not Active means under 50% inhibition at 10 µM
T1 sequence (P30988 whole entry): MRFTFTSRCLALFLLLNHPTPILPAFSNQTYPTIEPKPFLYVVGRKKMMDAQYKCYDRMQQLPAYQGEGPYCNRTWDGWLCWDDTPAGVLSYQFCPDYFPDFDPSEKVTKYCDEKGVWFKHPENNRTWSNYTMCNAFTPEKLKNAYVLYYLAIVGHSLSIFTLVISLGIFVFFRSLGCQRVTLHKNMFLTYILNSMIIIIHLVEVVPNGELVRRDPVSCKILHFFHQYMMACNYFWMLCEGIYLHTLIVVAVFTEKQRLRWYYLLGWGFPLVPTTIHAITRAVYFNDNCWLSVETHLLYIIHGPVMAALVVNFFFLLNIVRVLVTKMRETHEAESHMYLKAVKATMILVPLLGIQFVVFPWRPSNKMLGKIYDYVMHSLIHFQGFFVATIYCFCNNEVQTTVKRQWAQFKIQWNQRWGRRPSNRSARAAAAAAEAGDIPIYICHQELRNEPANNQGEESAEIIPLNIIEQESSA

SMILES	IC50
NS(=O)(=O)c1cc2c(cc1Cl)NCNS2(=O)=O [HYDROCHLOROTHIAZIDE]	Not Active
Oc1cccc2cccnc12 [OXYQUINOLINE]	Not Active
O=c1cc(-c2ccccc2)oc2c1ccc1ccccc12 [ALPHA-NAPHTHOFLAVONE]	Not Active
CN(C)CCCC1(c2ccc(F)cc2)OCc2cc(C#N)ccc21 (stereo not given) [CITALOPRAM]	Not Active

target: Substance-P receptor (Homo sapiens, UniProt P25103); assay: not given; assay type: cell membranes, CHO, Membrane; settings: cho; note: in other assays of this panel Not Active means under 50% inhibition at 10 µM
Sequence (P25103 whole entry): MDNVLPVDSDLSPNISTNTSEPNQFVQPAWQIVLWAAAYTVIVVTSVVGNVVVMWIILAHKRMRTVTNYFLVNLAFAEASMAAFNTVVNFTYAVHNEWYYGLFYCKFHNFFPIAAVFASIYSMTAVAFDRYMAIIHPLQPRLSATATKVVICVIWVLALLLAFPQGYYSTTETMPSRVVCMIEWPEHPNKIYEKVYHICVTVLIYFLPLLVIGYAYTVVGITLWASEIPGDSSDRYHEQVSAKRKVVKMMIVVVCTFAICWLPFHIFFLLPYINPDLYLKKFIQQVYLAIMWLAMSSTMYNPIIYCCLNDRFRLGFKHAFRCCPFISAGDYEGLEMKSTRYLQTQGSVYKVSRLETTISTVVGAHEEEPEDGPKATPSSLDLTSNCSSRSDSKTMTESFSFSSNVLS

SMILES	IC50
NS(=O)(=O)c1cc2c(cc1Cl)NCNS2(=O)=O [HYDROCHLOROTHIAZIDE]	Not Active
Oc1cccc2cccnc12 [OXYQUINOLINE]	Not Active
O=c1cc(-c2ccccc2)oc2c1ccc1ccccc12 [ALPHA-NAPHTHOFLAVONE]	Not Active
CN(C)CCCC1(c2ccc(F)cc2)OCc2cc(C#N)ccc21 (stereo not given) [CITALOPRAM]	Not Active

target: T2, Substance-K receptor (Homo sapiens, UniProt P21452); assay: not given; assay type: cell membranes, CHO, Membrane; settings: cho; note: in other assays of this panel Not Active means under 50% inhibition at 10 µM
T2 sequence (P21452 whole entry): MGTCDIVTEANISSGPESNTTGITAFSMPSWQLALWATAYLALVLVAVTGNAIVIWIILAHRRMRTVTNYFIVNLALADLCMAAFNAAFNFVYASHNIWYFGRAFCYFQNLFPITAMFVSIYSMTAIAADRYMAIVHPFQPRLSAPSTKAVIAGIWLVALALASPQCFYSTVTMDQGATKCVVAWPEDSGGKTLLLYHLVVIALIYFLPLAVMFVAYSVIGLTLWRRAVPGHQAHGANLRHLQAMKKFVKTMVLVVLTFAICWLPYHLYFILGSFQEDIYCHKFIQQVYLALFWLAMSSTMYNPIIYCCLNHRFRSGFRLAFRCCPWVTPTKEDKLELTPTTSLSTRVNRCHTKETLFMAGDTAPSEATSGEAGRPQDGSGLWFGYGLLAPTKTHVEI

SMILES	IC50
NS(=O)(=O)c1cc2c(cc1Cl)NCNS2(=O)=O [HYDROCHLOROTHIAZIDE]	Not Active
Oc1cccc2cccnc12 [OXYQUINOLINE]	Not Active
CN(C)CCCC1(c2ccc(F)cc2)OCc2cc(C#N)ccc21 (stereo not given) [CITALOPRAM]	Not Active

same assay, conditions: read-out: IC50

SMILES	IC50 [µM]
O=c1cc(-c2ccccc2)oc2c1ccc1ccccc12 [ALPHA-NAPHTHOFLAVONE]	5.85

same assay, conditions: read-out: Ki

SMILES	Ki [µM]
O=c1cc(-c2ccccc2)oc2c1ccc1ccccc12 [ALPHA-NAPHTHOFLAVONE]	1.95

target: C-C chemokine receptor type 5 (Homo sapiens, UniProt P51681); assay: not given; assay type: cell membranes, Membrane; settings: hek293; note: in other assays of this panel Not Active means under 50% inhibition at 10 µM
Sequence (P51681 whole entry): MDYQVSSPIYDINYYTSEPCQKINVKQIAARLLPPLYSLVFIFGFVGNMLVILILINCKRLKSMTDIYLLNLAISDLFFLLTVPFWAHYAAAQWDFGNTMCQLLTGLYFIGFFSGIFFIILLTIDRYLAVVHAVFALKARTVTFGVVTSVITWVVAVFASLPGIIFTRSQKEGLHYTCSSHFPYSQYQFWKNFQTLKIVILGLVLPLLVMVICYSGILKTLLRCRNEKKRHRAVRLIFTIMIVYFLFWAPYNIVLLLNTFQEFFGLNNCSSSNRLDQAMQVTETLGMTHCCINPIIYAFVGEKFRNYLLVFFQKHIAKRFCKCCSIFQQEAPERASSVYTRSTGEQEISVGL

SMILES	IC50
NS(=O)(=O)c1cc2c(cc1Cl)NCNS2(=O)=O [HYDROCHLOROTHIAZIDE]	Not Active
Oc1cccc2cccnc12 [OXYQUINOLINE]	Not Active
O=c1cc(-c2ccccc2)oc2c1ccc1ccccc12 [ALPHA-NAPHTHOFLAVONE]	Not Active
CN(C)CCCC1(c2ccc(F)cc2)OCc2cc(C#N)ccc21 (stereo not given) [CITALOPRAM]	Not Active

system: not listed separately; assay: DRUGMATRIX: GABAA, Muscimol, Central radioligand binding (ligand: [3H] Muscimol); assay type: cell membranes, Rattus norvegicus, Wistar, Brain, Membrane; settings: Not Active = under 50% inhibition at 10 µM

SMILES	IC50	Ki
NS(=O)(=O)c1cc2c(cc1Cl)NCNS2(=O)=O [HYDROCHLOROTHIAZIDE]	Not Active	Not Active
Oc1cccc2cccnc12 [OXYQUINOLINE]	Not Active	Not Active
O=c1cc(-c2ccccc2)oc2c1ccc1ccccc12 [ALPHA-NAPHTHOFLAVONE]	Not Active	Not Active
CN(C)CCCC1(c2ccc(F)cc2)OCc2cc(C#N)ccc21 (stereo not given) [CITALOPRAM]	Not Active	Not Active

target: Glycine receptor (Rattus norvegicus, UniProt P22771+P24524+P07727+P20781); assay: not given; assay type: cell membranes, Wistar, Spinal cord, Membrane; settings: not given; note: in other assays of this panel Not Active means under 50% inhibition at 10 µM

SMILES	IC50
NS(=O)(=O)c1cc2c(cc1Cl)NCNS2(=O)=O [HYDROCHLOROTHIAZIDE]	Not Active
Oc1cccc2cccnc12 [OXYQUINOLINE]	Not Active
O=c1cc(-c2ccccc2)oc2c1ccc1ccccc12 [ALPHA-NAPHTHOFLAVONE]	Not Active
CN(C)CCCC1(c2ccc(F)cc2)OCc2cc(C#N)ccc21 (stereo not given) [CITALOPRAM]	Not Active

system: not listed separately; assay: DRUGMATRIX: Interleukin IL-1 radioligand binding (ligand: [125I] interleukin 1beta); assay type: cell membranes, Membrane; settings: nih3t3; Not Active = under 50% inhibition at 10 µM

SMILES	IC50	Ki
NS(=O)(=O)c1cc2c(cc1Cl)NCNS2(=O)=O [HYDROCHLOROTHIAZIDE]	Not Active	Not Active
Oc1cccc2cccnc12 [OXYQUINOLINE]	Not Active	Not Active
O=c1cc(-c2ccccc2)oc2c1ccc1ccccc12 [ALPHA-NAPHTHOFLAVONE]	Not Active	Not Active
CN(C)CCCC1(c2ccc(F)cc2)OCc2cc(C#N)ccc21 (stereo not given) [CITALOPRAM]	Not Active	Not Active

system: not listed separately; assay: DRUGMATRIX: Nicotinic Acetylcholine radioligand binding (ligand: [125I] Epibatidine); assay type: cell membranes, Membrane; settings: imr-32; Not Active = under 50% inhibition at 10 µM

SMILES	IC50	Ki
NS(=O)(=O)c1cc2c(cc1Cl)NCNS2(=O)=O [HYDROCHLOROTHIAZIDE]	Not Active	Not Active
Oc1cccc2cccnc12 [OXYQUINOLINE]	Not Active	Not Active
O=c1cc(-c2ccccc2)oc2c1ccc1ccccc12 [ALPHA-NAPHTHOFLAVONE]	Not Active	Not Active
CN(C)CCCC1(c2ccc(F)cc2)OCc2cc(C#N)ccc21 (stereo not given) [CITALOPRAM]	Not Active	Not Active

system: not listed separately; assay: DRUGMATRIX: Potassium Channel [KATP] radioligand binding (ligand: [3H] Glyburide); assay type: cell membranes, Membrane; settings: hit-t15; Not Active = under 50% inhibition at 10 µM

SMILES	IC50	Ki
NS(=O)(=O)c1cc2c(cc1Cl)NCNS2(=O)=O [HYDROCHLOROTHIAZIDE]	Not Active	Not Active
Oc1cccc2cccnc12 [OXYQUINOLINE]	Not Active	Not Active
O=c1cc(-c2ccccc2)oc2c1ccc1ccccc12 [ALPHA-NAPHTHOFLAVONE]	Not Active	Not Active
CN(C)CCCC1(c2ccc(F)cc2)OCc2cc(C#N)ccc21 (stereo not given) [CITALOPRAM]	Not Active	Not Active

target: T3, Angiotensin-converting enzyme (Oryctolagus cuniculus, UniProt P12822); assay: biochemical; assay type: tissue-based, Lung; settings: not given
T3 sequence (P12822 whole entry): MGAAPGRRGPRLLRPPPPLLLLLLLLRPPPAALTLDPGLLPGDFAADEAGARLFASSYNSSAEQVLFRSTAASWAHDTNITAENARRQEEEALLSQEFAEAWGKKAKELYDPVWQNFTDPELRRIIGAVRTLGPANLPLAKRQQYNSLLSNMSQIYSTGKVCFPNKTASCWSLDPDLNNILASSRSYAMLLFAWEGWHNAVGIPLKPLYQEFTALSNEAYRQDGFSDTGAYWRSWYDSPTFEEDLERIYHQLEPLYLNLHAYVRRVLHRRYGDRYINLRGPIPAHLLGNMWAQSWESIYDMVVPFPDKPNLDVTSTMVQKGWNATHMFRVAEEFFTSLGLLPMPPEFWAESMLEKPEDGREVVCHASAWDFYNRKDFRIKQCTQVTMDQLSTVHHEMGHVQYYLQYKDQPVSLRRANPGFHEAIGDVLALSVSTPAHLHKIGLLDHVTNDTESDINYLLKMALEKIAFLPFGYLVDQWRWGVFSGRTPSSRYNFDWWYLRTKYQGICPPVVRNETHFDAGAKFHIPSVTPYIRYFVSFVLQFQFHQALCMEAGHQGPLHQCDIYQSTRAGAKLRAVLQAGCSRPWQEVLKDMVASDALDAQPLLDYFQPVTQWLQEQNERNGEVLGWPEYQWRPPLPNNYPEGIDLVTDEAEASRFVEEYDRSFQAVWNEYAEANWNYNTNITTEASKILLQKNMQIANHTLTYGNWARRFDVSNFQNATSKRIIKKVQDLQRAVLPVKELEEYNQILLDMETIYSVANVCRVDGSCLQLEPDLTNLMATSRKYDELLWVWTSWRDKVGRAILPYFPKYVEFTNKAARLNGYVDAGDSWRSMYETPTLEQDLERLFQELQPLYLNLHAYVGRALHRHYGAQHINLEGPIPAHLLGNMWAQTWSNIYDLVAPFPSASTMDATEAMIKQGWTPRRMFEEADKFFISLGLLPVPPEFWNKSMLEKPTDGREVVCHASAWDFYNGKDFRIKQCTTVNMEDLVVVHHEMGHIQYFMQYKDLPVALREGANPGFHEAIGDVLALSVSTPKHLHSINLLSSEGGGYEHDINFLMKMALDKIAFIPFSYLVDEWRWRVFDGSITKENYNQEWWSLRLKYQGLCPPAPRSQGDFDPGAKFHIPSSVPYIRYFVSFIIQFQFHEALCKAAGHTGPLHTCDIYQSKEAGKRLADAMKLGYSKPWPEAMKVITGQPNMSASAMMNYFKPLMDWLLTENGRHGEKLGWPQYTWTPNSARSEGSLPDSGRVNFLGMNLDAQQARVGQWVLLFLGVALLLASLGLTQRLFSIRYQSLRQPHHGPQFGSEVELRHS

SMILES	IC50
NS(=O)(=O)c1cc2c(cc1Cl)NCNS2(=O)=O [HYDROCHLOROTHIAZIDE]	Not Active
Oc1cccc2cccnc12 [OXYQUINOLINE]	Not Active
O=c1cc(-c2ccccc2)oc2c1ccc1ccccc12 [ALPHA-NAPHTHOFLAVONE]	Not Active
CN(C)CCCC1(c2ccc(F)cc2)OCc2cc(C#N)ccc21 (stereo not given) [CITALOPRAM]	Not Active

target: Mitogen-activated protein kinase 3 (Homo sapiens, UniProt P27361); assay: DRUGMATRIX: Protein Serine/Threonine Kinase, ERK1 enzyme inhibition (substrate: Myelin Basic Protein); set-up: species or system Escherichia coli; settings: Not Active = under 50% inhibition at 10 µM
Sequence (P27361 whole entry): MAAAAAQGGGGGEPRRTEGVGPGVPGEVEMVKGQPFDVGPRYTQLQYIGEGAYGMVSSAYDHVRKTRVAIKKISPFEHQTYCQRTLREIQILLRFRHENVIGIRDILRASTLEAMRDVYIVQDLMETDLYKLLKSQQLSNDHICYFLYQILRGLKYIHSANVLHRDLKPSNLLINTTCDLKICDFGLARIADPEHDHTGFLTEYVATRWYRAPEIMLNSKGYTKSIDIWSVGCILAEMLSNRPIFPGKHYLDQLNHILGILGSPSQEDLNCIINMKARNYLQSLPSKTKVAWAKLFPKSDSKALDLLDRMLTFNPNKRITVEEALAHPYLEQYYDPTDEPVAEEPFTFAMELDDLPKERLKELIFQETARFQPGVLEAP

SMILES	IC50
NS(=O)(=O)c1cc2c(cc1Cl)NCNS2(=O)=O [HYDROCHLOROTHIAZIDE]	Not Active
Oc1cccc2cccnc12 [OXYQUINOLINE]	Not Active
O=c1cc(-c2ccccc2)oc2c1ccc1ccccc12 [ALPHA-NAPHTHOFLAVONE]	Not Active
CN(C)CCCC1(c2ccc(F)cc2)OCc2cc(C#N)ccc21 (stereo not given) [CITALOPRAM]	Not Active

target: Adenosine receptor A2a (Homo sapiens, UniProt P29274); assay: DRUGMATRIX: Adenosine A2A radioligand binding (ligand: […]); assay type: cell membranes, HEK293, Membrane; settings: hek293; Not Active = under 50% inhibition at 10 µM
Sequence (P29274 whole entry): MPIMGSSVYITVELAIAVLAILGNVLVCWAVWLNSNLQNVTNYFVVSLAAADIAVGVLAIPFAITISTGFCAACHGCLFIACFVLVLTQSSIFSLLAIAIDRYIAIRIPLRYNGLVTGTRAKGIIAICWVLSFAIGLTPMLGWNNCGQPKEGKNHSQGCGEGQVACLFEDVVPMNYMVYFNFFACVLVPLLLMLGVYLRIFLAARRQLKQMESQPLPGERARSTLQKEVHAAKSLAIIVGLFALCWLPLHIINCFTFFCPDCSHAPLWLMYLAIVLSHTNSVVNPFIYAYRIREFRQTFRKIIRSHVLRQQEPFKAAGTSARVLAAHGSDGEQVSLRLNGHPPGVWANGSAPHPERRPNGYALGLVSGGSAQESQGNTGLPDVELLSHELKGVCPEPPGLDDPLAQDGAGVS

SMILES	IC50
NS(=O)(=O)c1cc2c(cc1Cl)NCNS2(=O)=O [HYDROCHLOROTHIAZIDE]	Not Active
Oc1cccc2cccnc12 [OXYQUINOLINE]	Not Active
O=c1cc(-c2ccccc2)oc2c1ccc1ccccc12 [ALPHA-NAPHTHOFLAVONE]	Not Active
CN(C)CCCC1(c2ccc(F)cc2)OCc2cc(C#N)ccc21 (stereo not given) [CITALOPRAM]	Not Active
